Data from patent US11000033B2, “Ketone or oxime compound, and herbicide” (NISSAN CHEMICAL CORPORATION, priority 2014, dated 2021).

Tests used:
Assay type in all cases: in vivo
[1] = test system: Scirpus juncoides; experiment: Test Example 1: herbicidal activity, application before weed generation in submerged conditions (symbol B); conditions: application herbicide amount 320 g/ha
Summary of the method: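 Compound emulsion was diluted to a set herbicide amount and applied to the water surface on the sowing day, into submerged (4 cm) alluvial-soil pots sown with mixed weed seeds and transplanted 2.5-leaf rice. Pots were held in a 25–30 °C greenhouse, and weeds were scored 0–5 by herbicidal ratio after 3 weeks.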

[2] = test system: transplanted rice plant; experiment: Test Example 1: effect on crop, application before weed generation in submerged conditions (symbol a); conditions: application herbicide amount 320 g/ha
Summary of the method: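 Alluvial soil pots flooded to 4 cm water, sown with Echinochloa oryzacola, Scirpus juncoides and Monochoria vaginalis, then transplanted with 2.5 leaf stage rice seedlings; pre-emergence application. Greenhouse 25° C. to 30° C.; scored 0–5 by herbicidal ratio 3 weeks after application.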

[3] = test system: Monochoria vaginalis; experiment: Test Example 2: herbicidal activity, application during weed generation in submerged conditions (symbol C); conditions: Table 23; application herbicide amount 320 g/ha; grade 0-5 by criteria of Test Example 1
Summary of the method: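 Visual herbicidal ratings, taken three weeks after dosing, reflect post-emergence water-surface application to seedlings at one to two leaves. Conditions: co-sown weeds in alluvial soil flooded to 4 cm, greenhouse held at 25° C. to 30° C.; compound given as water-diluted emulsion at a fixed herbicide amount.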

[4] = test system: Alopecurus myosuroides; experiment: Test Example 4: herbicidal effect by soil treatment (symbol J)
Summary of the method: (§1)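 Seeds were sown in sterilized diluvial soil, covered with about 1.5 cm of soil, and the soil surface was sprayed with a water-diluted emulsion of the compound at a predetermined rate. Plants grew in a greenhouse at 25° C. to 30° C.; effects were scored visually 3 weeks after application.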

[5] = test system: Lolium multiflorum Lam.; experiment: Test Example 4: herbicidal effect by soil treatment (symbol K)
Summary of the method: as §1

[6] = test system: soybean; experiment: Test Example 4: effect on crop by soil treatment (symbol d)
Summary of the method: (§2)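 The test used sterilized diluvial soil. Seed was set down in spots and overlaid with about 1.5 cm of soil before growth in a greenhouse kept at 25° C. to 30° C.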

[7] = test system: rice; experiment: Test Example 4: effect on crop by soil treatment (symbol b)
Summary of the method: as §2

[8] = test system: wheat; experiment: Test Example 4: effect on crop by soil treatment (symbol e)
Summary of the method: as §2

[9] = test system: Digitaria ciliaris; experiment: Test Example 5: herbicidal effect by foliage application, plastic box (symbol F); conditions: 320 g/ha, 3 weeks after application
Summary of the method: (§3)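 Seeds were sown in sterilized diluvial soil, covered with about 1.5 cm of soil and grown 14 days in a greenhouse at 25° C. to 30° C. An emulsifiable formulation diluted in water to a set rate was sprayed over foliage, and injury was scored 3 weeks later.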

[10] = test system: Echinochloa crus-galli var. crus-galli; experiment: Test Example 5: herbicidal effect by foliage application, plastic box (symbol H); conditions: 320 g/ha, 3 weeks after application
Summary of the method: as §3

[11] = test system: Alopecurus myosuroides; experiment: Test Example 5: herbicidal effect by foliage application, plastic box (symbol J); conditions: 320 g/ha, 3 weeks after application
Summary of the method: as §3

[12] = test system: corn; experiment: Test Example 5: effect on crop by foliage application, plastic box (symbol c); conditions: 320 g/ha, 3 weeks after application
Summary of the method: (§4)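 Soil: sterilized diluvial. Container: plastic box, 21 × 13 cm, 7 cm deep. Sowing: spot-like, ~1.5 cm cover. Growth: greenhouse, 25° C. to 30° C.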

[13] = test system: rapeseed; experiment: Test Example 5: effect on crop by foliage application, plastic box (symbol g); conditions: 320 g/ha, 3 weeks after application
Summary of the method: as §4

[14] = application herbicide amount 320 g/ha

Structure (SMILES) | Herbicidal effect grade, B: Scirpus juncoides [1] | Effect grade on crop, a: transplanted rice plant [2] | Herbicidal effect grade, C: Monochoria vaginalis [3] | F: Digitaria ciliaris, herbicidal effect (criteria 0-5) [9] | H: Echinochloa crus-galli var. crus-galli, herbicidal effect (criteria 0-5) [10] | J: Alopecurus myosuroides, herbicidal effect (criteria 0-5) [11] | c: corn, effect on crop (criteria 0-5) [12] | g: rapeseed, effect on crop (criteria 0-5) [13] | J (Alopecurus myosuroides) herbicidal effect grade [4, 14] | K (Lolium multiflorum Lam.) herbicidal effect grade [5, 14] | d (soybean) effect on crop grade [6, 14] | b (directly sowed rice plant) effect on crop grade [7, 14] | e (wheat) effect on crop grade [8, 14] | F: Digitaria ciliaris, herbicidal effect grade [9] | H: Echinochloa crus-galli var. crus-galli, herbicidal effect grade [10] | J: Alopecurus myosuroides, herbicidal effect grade [11] | c: corn, effect on crop grade [12] | g: rapeseed, effect on crop grade [13] | other results
CC#CC(=O)OC1=C(c2c(C)cc(C)cc2C)C(=O)C(CC(C)=NOC)C1 (centres unmarked) [1-095] | 5 (Herbicidal ratio of 90% or more (almost completely withered)) | 5 (Herbicidal ratio of 90% or more (almost completely withered)) | 1 (Herbicidal ratio of 5% or higher and lower than 20%) | 5 (Herbicidal ratio of 90% or more (almost completely withered)) | 5 (Herbicidal ratio of 90% or more (almost completely withered)) | 5 (Herbicidal ratio of 90% or more (almost completely withered)) | 5 (Herbicidal ratio of 90% or more (almost completely withered)) | 4 (Herbicidal ratio of 70% or higher and lower than 90%) | – | – | – | – | – | – | – | – | – | – | J: Alopecurus myosuroides, herbicidal effect grade ([4]; 320 g/ha): 5 (Herbicidal ratio of 90% or more (almost completely withered)); K: Lolium multiflorum Lam., herbicidal effect grade ([5]; 320 g/ha): 5 (Herbicidal ratio of 90% or more (almost completely withered)); d: soybean, effect grade on crop ([6]; 320 g/ha): 0 (Herbicidal ratio of 5% or lower (almost no effect)); b: directly sowed rice plant, effect grade on crop ([7]; 320 g/ha): 5 (Herbicidal ratio of 90% or more (almost completely withered)); e: wheat, effect grade on crop ([8]; 320 g/ha): 4 (Herbicidal ratio of 70% or higher and lower than 90%)
CCC(C)C(CC1CC(O)=C(c2c(C)cc(C)cc2C)C1=O)=NOC (centres unmarked) [1-066] | 0 (Herbicidal ratio of 5% or lower (almost no effect)) | 5 (Herbicidal ratio of 90% or more (almost completely withered)) | 0 (Herbicidal ratio of 5% or lower (almost no effect)) | – | – | – | – | – | 5 (Herbicidal ratio of 90% or more (almost completely withered)) | 5 (Herbicidal ratio of 90% or more (almost completely withered)) | 0 (Herbicidal ratio of 5% or lower (almost no effect)) | 5 (Herbicidal ratio of 90% or more (almost completely withered)) | 0 (Herbicidal ratio of 5% or lower (almost no effect)) | 4 (Herbicidal ratio of 70% or higher and lower than 90%) | 5 (Herbicidal ratio of 90% or more (almost completely withered)) | 5 (Herbicidal ratio of 90% or more (almost completely withered)) | 4 (Herbicidal ratio of 70% or higher and lower than 90%) | 3 (Herbicidal ratio of 40% or higher and lower than 70%) | –
CON=C(C)CC1CC(OC(=O)COc2ccc(F)cc2)=C(c2c(C)cc(C)cc2C)C1=O (centres unmarked) [1-073] | 5 (Herbicidal ratio of 90% or more (almost completely withered)) | 5 (Herbicidal ratio of 90% or more (almost completely withered)) | 2 (Herbicidal ratio of 20% or higher and lower than 40%) | 5 (Herbicidal ratio of 90% or more (almost completely withered)) | 5 (Herbicidal ratio of 90% or more (almost completely withered)) | 5 (Herbicidal ratio of 90% or more (almost completely withered)) | 4 (Herbicidal ratio of 70% or higher and lower than 90%) | 4 (Herbicidal ratio of 70% or higher and lower than 90%) | 5 (Herbicidal ratio of 90% or more (almost completely withered)) | 5 (Herbicidal ratio of 90% or more (almost completely withered)) | 0 (Herbicidal ratio of 5% or lower (almost no effect)) | 5 (Herbicidal ratio of 90% or more (almost completely withered)) | 4 (Herbicidal ratio of 70% or higher and lower than 90%) | – | – | – | – | – | –
CON=C(CC1CC(O)=C(c2c(C)cc(Br)cc2C)C1=O)C(C)C (centres unmarked) [9-001] | 0 (Herbicidal ratio of 5% or lower (almost no effect)) | 4 (Herbicidal ratio of 70% or higher and lower than 90%) | 0 (Herbicidal ratio of 5% or lower (almost no effect)) | – | – | – | – | – | – | – | – | – | – | 4 (Herbicidal ratio of 70% or higher and lower than 90%) | 5 (Herbicidal ratio of 90% or more (almost completely withered)) | 3 (Herbicidal ratio of 40% or higher and lower than 70%) | 4 (Herbicidal ratio of 70% or higher and lower than 90%) | 2 (Herbicidal ratio of 20% or higher and lower than 40%) | Herbicidal effect grade, J: Alopecurus myosuroides [4, 14]: 3 (Herbicidal ratio of 40% or higher and lower than 70%); Herbicidal effect grade, K: Lolium multiflorum Lam. [5, 14]: 5 (Herbicidal ratio of 90% or more (almost completely withered)); Effect on crop grade, d: soybean [6, 14]: 0 (Herbicidal ratio of 5% or lower (almost no effect)); Effect on crop grade, b: directly sowed rice plant [7, 14]: 4 (Herbicidal ratio of 70% or higher and lower than 90%); Effect on crop grade, e: wheat [8, 14]: 0 (Herbicidal ratio of 5% or lower (almost no effect))
CON=C(CC1CC(OC(=O)COc2ccccc2)=C(c2c(C)cc(C)cc2C)C1=O)C1CC1 (centres unmarked) [1-063] | 3 (Herbicidal ratio of 40% or higher and lower than 70%) | 5 (Herbicidal ratio of 90% or more (almost completely withered)) | 0 (Herbicidal ratio of 5% or lower (almost no effect)) | – | – | – | – | – | 5 (Herbicidal ratio of 90% or more (almost completely withered)) | 5 (Herbicidal ratio of 90% or more (almost completely withered)) | 0 (Herbicidal ratio of 5% or lower (almost no effect)) | 5 (Herbicidal ratio of 90% or more (almost completely withered)) | 3 (Herbicidal ratio of 40% or higher and lower than 70%) | 1 (Herbicidal ratio of 5% or higher and lower than 20%) | 5 (Herbicidal ratio of 90% or more (almost completely withered)) | 5 (Herbicidal ratio of 90% or more (almost completely withered)) | 3 (Herbicidal ratio of 40% or higher and lower than 70%) | 4 (Herbicidal ratio of 70% or higher and lower than 90%) | –
